Measurements: patent US11733243B2, “Use of acamprosate to modulate ERK1/2 activation in animal models for FXS and ASD and individuals diagnosed with FXS and ASD” (Indiana University Research and Technology Corporation, priority 2013, dated 2023)
“And” between values parts separate entries of the source, which are not always exact repeats. Identical values can stand only once.

How the values were obtained:
[1] = system: patients diagnosed with FXS; assay: 10-week open-label trial of acamprosate in youth with FXS: behavioral outcome measures; format: in vivo, human; parameters: key to mean CGI-I at endpoint: CGI-I score: 1 = very much improved, 2 = much improved; details: for Aberrant Behavior Checklist-Social Avoidance (ABC-SA), End point (mean ± SD): baseline 3.3 ± 2.6; for Clinical Global Impressions-Severity (CGI-S), End point (mean ± SD): baseline 4.25 ± 0.45; for Clinical Global Impressions-Severity (CGI-S), End point (mean ± SD) / ADHD Rating Scale 4th Edition (ADHD-RS), End point (mean ± SD): p<0.0001; for Aberrant Behavior Checklist-Social Withdrawal (ABC-SW), End point (mean ± SD): baseline 8.8 ± 5.8, p=0.04 (Table 5: 7.33 ± 5.2, p=0.014); for Aberrant Behavior Checklist-Hyperactivity (ABC-H), End point (mean ± SD): baseline 16.8 ± 9.1, p=0.009; for ADHD Rating Scale 4th Edition (ADHD-RS), End point (mean ± SD): baseline 23.6 ± 10.6; for Vineland Adaptive Behavior Scale (VABS) Communication Domain, End point (mean ± SD): baseline 63.4 ± 10.1, p=0.03; for VABS Expressive Communication Subdomain, End point (mean ± SD): baseline 69.8 ± 23.0; for Social Responsiveness Scale total score (SRS), End point (mean ± SD): baseline 91.3 ± 27.4, p=0.005
Excerpt: The Institutional Review Board (IRB) at an academic medical center approved this study. Thirteen outpatient males and females aged 5 to 17 years with body weight≥15 kg were recruited for this study. Written informed consent was obtained from each participant's legal guardian (parent for all children in this report), and subjects provided assent when able. Diagnosis of FXS was confirmed by Southern Blot and PCR results consistent with a greater than 200 CGG repeat expansion in the fmr1 gene with at least partial gene methylation. Subjects had to be free of other significant medical conditions. The concomitant use of psychotropic drugs that are not thought to impact glutamate neurotransmission were allowed so long as the patients experienced stable dosing at least 4 weeks prior to baseline. Subjects were required to have a mental age of greater than 18 months as determined by the Stanford-Binet 5th Edition. Additional inclusion criteria included a CGI-S (Guy 1976) score of at least 4 (“Moderately Ill”). Subjects with a Diagnostic and Statistical Manual of Mental Disorders, 4th Edition, Text Revision (DSM-IV-TR) diagnosis of a psychotic disorder, bipolar disorder, or substance use disorder were excluded from the study. Additionally, subjects with a positive urine pregnancy test, creatinine clearance of <30, active seizure disorder, or other significant medical condition were excluded.
A 10-week, prospective, open-label study design was chosen to gather pilot data for potential future larger-scale, double-blind, placebo-controlled studies in this population.
All subjects underwent a screening and baseline visit followed by follow-up visits every 2 weeks during the 10-week open-label trial period. At the end of weeks 1, 3, and 5 the investigators called the parent to assess drug tolerability and to make dose adjustments as indicated. All subjects received 333 mg/day of acamprosate during the first week of the study. The investigators then increased the dosage to a maximum of 1,998 mg/day (weight>50 kg) or 1,332 mg/day (weight<50 kg) over the first six weeks of the study, if optimal clinical response (CGI-I equal to 1 “very much improved”) had not occurred and intolerable adverse effects had not emerged. The dose maintenance phase lasted 4 weeks at the optimal dosage.
The CGI-S assessment was administered at screen and at baseline as part of the eligibility criteria described above. In this study, the rater scored the CGI-S in regard to severity of symptoms commonly noted in FXS including, but not limited to, inattention/hyperactivity, social impairment, communication impairment, repetitive behavior, irritability, and anxiety. The CGI-S is rated on a scale from 1 to 7 (1=normal, not ill at all; 2=borderline ill; 3=mildly ill; 4=moderately ill; 5=markedly ill; 6=severely ill; 7=among the most extremely ill patients with FXS). The Autism Diagnostic Observation Schedule (ADOS) (Lord, Rutter et al. 1989) was administered at baseline to characterize potential concomitant ASD diagnosis.
The primary outcome measure was the CGI-I. The CGI-I is a scale designed to assess global change from baseline. […] Treatment response was defined by a CGI-I score of 1 “very much improved” or 2 “much improved.” In this study, the CGI-I was utilized as a general global primary outcome measure given the uncertainty as to what specific symptoms/behaviors associated with FXS may be expected to improve or worsen with use of acamprosate. The CGI-I was administered at all visits after baseline.
Secondary outcome measures included all subscales of the ABC (Irritability, Social Withdrawal, Stereotypy, Hyperactivity, and Inappropriate Speech). The ABC is an informant-rated (primary caregiver) measure with confirmed reliability and validity with regard to factor structure, distribution of scores, and sensitivity to change in persons with developmental disability (Aman, Singh et al. 1985). […]

[2] = system: youths symptomatic for an autistic disorder; details: mean dose 1,110 mg/day, 10 to 30 weeks; cited from earlier work
[3] = FXS, n=12, 10 weeks, listed as acamprosate
[4] = FXS, mean change from baseline to endpoint divided by SD at baseline

SMILES: CC(=O)NCCCS(=O)(=O)O [Acamprosate, 3-Acetamidopropane-1-sulfonic acid]
- Treatment responders (CGI-I score of 1 very much improved or 2 much improved) ([1]; 12 youth with FXS, 10 weeks, mean final dose 1054 mg/day): 75%
- Other subscales of the ABC and the CY-BOCS-PDD ([1]; FXS, 10 weeks): did not change significantly during treatment
- SRS Social Awareness and Autistic Mannerisms subscales ([1]; FXS, 10 weeks): Improvement was not noted
- decline of mean ABC-H score, baseline to endpoint ([1]; FXS, 10 weeks): 35%
- decline of mean ABC-SA score, baseline to endpoint ([1]; FXS, 10 weeks): 51%
- decline of mean ABC-SW score, baseline to endpoint ([1]; FXS, 10 weeks): 53%
- decline of mean ADHD-RS score, baseline to endpoint ([1]; FXS, 10 weeks): 29%
- decline of mean total SRS raw score, baseline to endpoint ([1]; FXS, 10 weeks): 16%
- improvement of mean VABS Communication Domain standard score ([1]; FXS, 10 weeks): 5%
- improvement of mean VABS Expressive Communication score ([1]; FXS, 10 weeks): 13%
- other domains of the VABS ([1]; FXS, 10 weeks): No other changes with treatment were noted
- Peabody Picture Vocabulary Test (PPVT), End point (mean ± SD) ([1]; FXS, 10 weeks, baseline 85.2 ± 32.0, p=0.53): did not significantly change with treatment
- decline of SRS Social Motivation subscale ([1]; FXS, 10 weeks, p=0.003): 28%
- decline of SRS Social Cognition subscale ([1]; FXS, 10 weeks, p=0.01): 19%
- decline of SRS Social Communication subscale ([1]; FXS, 10 weeks, p=0.01): 14%
- mean CGI-I at endpoint ([1]; FXS, Week 10, scale 1-7): 1.92 and 1.9
- Aberrant Behavior Checklist-Social Avoidance (ABC-SA), End point (mean ± SD) ([1]; FXS, n=12, 10 weeks, p=0.01): 1.6 ± 2.7
- Aberrant Behavior Checklist-Social Avoidance (ABC-SA), End point (mean ± SD) ([1]; FXS, n=12, 10 weeks, p=0.01, listed as acamprosate): 1.6
- Clinical Global Impressions-Severity (CGI-S), End point (mean ± SD) ([1]; FXS, n=12, 10 weeks): 3.33 ± 0.5 and 3.33 ± 0.49
- Clinical Global Impressions-Severity (CGI-S), End point (mean ± SD) [1, 3]: 3.33
- Aberrant Behavior Checklist-Inappropriate Speech (ABC-IS), End point (mean ± SD) ([1]; FXS, n=12, 10 weeks, baseline 5.2 ± 3.5, p=0.61): 4.8 ± 3.4
- Aberrant Behavior Checklist-Social Withdrawal (ABC-SW), End point (mean ± SD) ([1]; FXS, n=12, 10 weeks): 4.1 ± 6.5
- Aberrant Behavior Checklist-Social Withdrawal (ABC-SW), End point (mean ± SD) [1, 3]: 4.1
- Aberrant Behavior Checklist-Irritability (ABC-I), End point (mean ± SD) ([1]; FXS, n=12, 10 weeks, baseline 9.9 ± 7.8, p=0.11): 7.0 ± 8.9
- Children's Yale-Brown Obsessive Compulsive Scale Modified for PDD (CY-BOCS-PDD), End point (mean ± SD) ([1]; FXS, n=12, 10 weeks, baseline 11.1 ± 2.6, p=0.15): 9.8 ± 4.1
- Aberrant Behavior Checklist-Hyperactivity (ABC-H), End point (mean ± SD) ([1]; FXS, n=12, 10 weeks): 11.0 ± 8.6
- Aberrant Behavior Checklist-Hyperactivity (ABC-H), End point (mean ± SD) [1, 3]: 11.0
- ADHD Rating Scale 4th Edition (ADHD-RS), End point (mean ± SD) ([1]; FXS, n=12, 10 weeks): 16.7 ± 8
- ADHD Rating Scale 4th Edition (ADHD-RS), End point (mean ± SD) [1, 3]: 16.7
- Vineland Adaptive Behavior Scale (VABS) Communication Domain, End point (mean ± SD) ([1]; FXS, n=12, 10 weeks): 66.6 ± 11.2
- Vineland Adaptive Behavior Scale (VABS) Communication Domain, End point (mean ± SD) [1, 3]: 66.6
- VABS Expressive Communication Subdomain, End point (mean ± SD) ([1]; FXS, n=12, 10 weeks, p=0.003): 78.9 ± 21.2
- VABS Expressive Communication Subdomain, End point (mean ± SD) ([1]; FXS, n=12, 10 weeks, p=0.003, listed as acamprosate): 78.9
- Social Responsiveness Scale total score (SRS), End point (mean ± SD) ([1]; FXS, n=12, 10 weeks): 76.4 ± 26.8 and 76.42 ± 26.8
- Social Responsiveness Scale total score (SRS), End point (mean ± SD) [1, 3]: 76.4
- Effect Size, ABC-H [1, 4]: 0.64
- Effect Size, ABC-SA [1, 4]: 0.64
- Effect Size, ABC-SW [1, 4]: 0.81
- Effect Size, ADHD-RS [1, 4]: 0.65
- Effect Size, CGI-S [1, 4]: 2.0
- Effect Size, SRS total score [1, 4]: 0.54
- Effect Size, VABS Communication Domain [1, 4]: 0.32
- Effect Size, VABS Expressive Communication Subdomain [1, 4]: 0.4
- Effect Size, VABS Communication Domain ([1]; FXS, mean change from baseline to endpoint divided by SD at baseline, listed as acamprosate): 0.3
- youth judged responders to acamprosate (of those treated) ([1]; youth with FXS, pre-specified indicators of clinical response): 9 of 12
- youths judged treatment responders [2]: five of six
